Results on ten molecules are retold here after ChEMBL document CHEMBL1201862, “PubChem BioAssay data set” (2004).

Test systems include K562; CAKI-1; HT-29; SR; UO-31; M14; OVCAR-4; SK-MEL-28; SF-268; KM12; NCI-H460; SF-295; MDA-MB-231; NCI-H23; ACHN; SF-539; IGROV-1; NCI/ADR-RES; A498; COLO 205.
Assay in all cases: inhibition of tumour cell growth, NCI panel, 48 h

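Exposure lasted 48 hours, with cells grown in 96-well plates and compounds tested at five concentrations. The concentration for 50% growth inhibition is given as GI50.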 Calls of active or inactive are those of the source. No stated cut-off is given here; in the data, active = GI50 up to about 1.1 µM and inactive = higher. Some results are limits rather than exact numbers.

Regarding `CC(C)(C)c1ccc(OCCOc2ccc(C(C)(C)C)cc2NC=O)c(NC=O)c1`, the GI50 in the assay with K562 was 4.14 µM (inactive); with CAKI-1 it was 19.4 µM (inactive); in the assay on HT-29, 3.08 µM (inactive); in the assay on SR it was 11.7 µM (inactive); in the assay with UO-31, 5.69 µM (inactive); in the assay on M14, 5.48 µM (inactive). The GI50 is 7.01 µM (inactive) in the assay on OVCAR-4; 12.3 µM (inactive) with SK-MEL-28; 15.1 µM (inactive) in the assay with SF-268; 3.77 µM (inactive) with KM12; 4.01 µM (inactive) with NCI-H460; 5.5 µM (inactive) with SF-295. For the same molecule, the GI50 with MDA-MB-231 is 11.4 µM (inactive); with NCI-H23, 7.11 µM (inactive); with ACHN it was 7.78 µM (inactive); in the assay with SF-539, 8.77 µM (inactive); in the assay with IGROV-1, 11.3 µM (inactive); in the assay on NCI/ADR-RES, 5.68 µM (inactive). In addition, the GI50 in the assay with A498 is 15.4 µM (inactive); in the assay on COLO 205, 1.94 µM (inactive).
For `CC1(C)CCCOc2cccc(c2)OCCCC(C)(C)C1=O`, the GI50 with K562 is 14.8 µM (inactive); in the assay on CAKI-1, 46.2 µM (inactive); in the assay on HT-29, 19.8 µM (inactive); in the assay with SR it was 34 µM (inactive); in the assay with UO-31 it was 51.4 µM (inactive); in the assay on M14, 33.9 µM (inactive). Moreover, the GI50 was 27.5 µM (inactive) in the assay with OVCAR-4; 38.5 µM (inactive) in the assay on SK-MEL-28; 54.8 µM (inactive) in the assay on SF-268; 26 µM (inactive) in the assay with KM12; 25.1 µM (inactive) in the assay with NCI-H460; 44.1 µM (inactive) in the assay on MDA-MB-231. Further, the GI50 in the assay on NCI-H23 is 31.8 µM (inactive); in the assay with ACHN, 36.8 µM (inactive); in the assay with SF-539, 86.5 µM (inactive); with IGROV-1, 39.2 µM (inactive); with NCI/ADR-RES, 38.3 µM (inactive); in the assay with A498, 66.2 µM (inactive). In addition, in the assay with COLO 205, the GI50 is 49.3 µM (inactive).
On to `Cc1ccc(S(=O)(=O)C2=c3ncccc3=C3C(=O)c4ccccc4C(=O)C32)cc1` (configuration not stated), for which the GI50 in the assay on K562 is > 95.9 µM (inactive); in the assay with CAKI-1, 64.6 µM (inactive); in the assay with HT-29 it was > 100 µM (inactive); in the assay with SR, > 100 µM (inactive); in the assay on UO-31 it was > 72.1 µM (inactive); with M14, > 100 µM (inactive). Moreover, the GI50 in the assay on OVCAR-4 is 15.8 µM (inactive); with SK-MEL-28 it was > 100 µM (inactive); with SF-268, 46.7 µM (inactive); in the assay with KM12 it was > 9.95 µM (inactive); with NCI-H460, 7.11 µM (inactive); in the assay on SF-295 it was 43.1 µM (inactive). In addition, the GI50 is 29.6 µM (inactive) with MDA-MB-231; 64 µM (inactive) in the assay with NCI-H23; 51.3 µM (inactive) with ACHN; 2.75 µM (inactive) with SF-539; 13.9 µM (inactive) in the assay with IGROV-1; 49.3 µM (inactive) in the assay on NCI/ADR-RES. In addition, the values for the GI50 in the assay on A498 and in the assay with COLO 205 were 5.81 µM (inactive) and > 100 µM (inactive), respectively.
Consider `C[Si](C)(OCCS(=O)(=O)O)C1S(=O)(=O)OCCOS1(=O)=O`, for which the GI50 with K562 is 70 µM (inactive); in the assay with CAKI-1, 27.7 µM (inactive); in the assay with HT-29, > 100 µM (inactive); in the assay with SR, 38.4 µM (inactive); in the assay on UO-31 it was 58.6 µM (inactive); in the assay on M14, 48.2 µM (inactive). In addition, the GI50 in the assay on OVCAR-4 was > 100 µM (inactive); with SK-MEL-28 it was > 100 µM (inactive); in the assay with SF-268, 24 µM (inactive); in the assay with KM12, 91.6 µM (inactive); in the assay on NCI-H460 it was 31.7 µM (inactive); in the assay on SF-295, 4.86 µM (inactive). Further, the GI50 with MDA-MB-231 is > 100 µM (inactive); with NCI-H23 it was 53.8 µM (inactive); in the assay with ACHN it was 35.9 µM (inactive); with SF-539, 23.9 µM (inactive); with IGROV-1, > 100 µM (inactive); with NCI/ADR-RES it was 45.4 µM (inactive). For the same molecule, the GI50 in the assay with A498 and in the assay on COLO 205 was > 100 µM (inactive) each time.
As for `O=C1C(S(=O)(=O)c2ccccc2)=C(CS(=O)(=O)c2ccccc2)[C@@H](OCc2ccccc2)[C@@H]1OCc1ccccc1`, the GI50 with K562 is 14.4 µM (inactive); in the assay with CAKI-1, 30.1 µM (inactive); in the assay with HT-29, 13.5 µM (inactive); in the assay on SR, 14.5 µM (inactive); in the assay on UO-31, 18.5 µM (inactive); in the assay with M14, 15.7 µM (inactive). For the same molecule, the GI50 in the assay on OVCAR-4 is 20.7 µM (inactive); with SK-MEL-28, 18.1 µM (inactive); in the assay with SF-268, 29.9 µM (inactive); in the assay with KM12 it was 0.0519 µM (active); in the assay with NCI-H460 it was 21 µM (inactive); with SF-295, 18.7 µM (inactive). The GI50 in the assay with MDA-MB-231 was 23.9 µM (inactive); with NCI-H23 it was 16.9 µM (inactive); with ACHN it was 31.8 µM (inactive); in the assay on SF-539 it was 19.2 µM (inactive); in the assay with IGROV-1, 17.1 µM (inactive); with NCI/ADR-RES it was 20.7 µM (inactive). Also, the GI50 in the assay with A498 was 23.3 µM (inactive); with COLO 205 it was 25.8 µM (inactive).
`CN(NC(=O)c1ccc(Cl)cc1)C1=NCCCCN1`: the GI50 in the assay with K562, with CAKI-1, with HT-29, in the assay with SR, in the assay on UO-31 and in the assay on M14 was > 100 µM (inactive) each time. Besides, the GI50 in the assay with OVCAR-4, in the assay on SK-MEL-28, in the assay on SF-268, with KM12, in the assay on NCI-H460 and in the assay with SF-295 was > 100 µM (inactive) each time. Besides, the GI50 with MDA-MB-231, in the assay on NCI-H23, in the assay on ACHN, in the assay with SF-539, in the assay with IGROV-1 and with NCI/ADR-RES was > 100 µM (inactive) in each case. Also, the GI50 with A498 and with COLO 205 was > 100 µM (inactive) throughout.
Consider `C=C(CC[C@@H](C)[C@H]1CC[C@@]2(C)C3=C(CC[C@]12C)[C@@]1(C)CC[C@H](O)[C@@H](C)C1CC3)C(C)C` (some centres not stated), for which the GI50 was 0.273 µM (active) in the assay on K562; 1.15 µM (inactive) in the assay on CAKI-1; 0.48 µM (active) in the assay with HT-29; 1.01 µM (active) with SR; 1.23 µM (inactive) in the assay on UO-31; 1.17 µM (inactive) with M14. Further, the GI50 in the assay with OVCAR-4 was 1.6 µM (inactive); in the assay on SK-MEL-28, 1.28 µM (inactive); in the assay with KM12 it was 1.26 µM (inactive); in the assay with NCI-H460, 0.679 µM (active); in the assay with SF-295, 1.08 µM (active); in the assay with MDA-MB-231 it was 1.5 µM (inactive). Further, the GI50 is 1.28 µM (inactive) in the assay on NCI-H23; 1.38 µM (inactive) with ACHN; 1.47 µM (inactive) in the assay on SF-539; 2.35 µM (inactive) in the assay with IGROV-1; 1.4 µM (inactive) with NCI/ADR-RES; 1.41 µM (inactive) in the assay on A498. Further, the GI50 in the assay on COLO 205 is 1.17 µM (inactive).
`COCCOCCOC1=C(Cl)C(=O)c2c(O)ccc(O)c2C1=O`: the GI50 was 1.21 µM (inactive) in the assay on K562; 1.27 µM (inactive) in the assay with CAKI-1; 3.48 µM (inactive) in the assay on HT-29; 0.399 µM (active) with SR; 2.16 µM (inactive) with UO-31; 1.59 µM (inactive) in the assay with M14. In addition, the GI50 was 1.85 µM (inactive) in the assay on OVCAR-4; 2.33 µM (inactive) in the assay on SK-MEL-28; 2.59 µM (inactive) in the assay on SF-268; 12.8 µM (inactive) in the assay on KM12; 12.9 µM (inactive) in the assay with NCI-H460; 11.7 µM (inactive) in the assay on SF-295. The GI50 with MDA-MB-231 is 2.01 µM (inactive); with NCI-H23, 2.48 µM (inactive); in the assay with ACHN it was 1.68 µM (inactive); in the assay with SF-539 it was 1.67 µM (inactive); in the assay with IGROV-1, 2.62 µM (inactive); with NCI/ADR-RES, 2.93 µM (inactive). The GI50 in the assay on A498 was 3.59 µM (inactive); in the assay with COLO 205, 1.03 µM (active).
On to `COc1ccc(C(=O)Oc2c(C#N)sc3c2c(=O)n(-c2ccccc2)c(=S)n3-c2ccccc2)cc1`, for which the GI50 is 30.3 µM (inactive) in the assay with K562; 22.3 µM (inactive) in the assay with CAKI-1; 22.2 µM (inactive) with HT-29; < 0.01 µM (active) in the assay with SR; 2.12 µM (inactive) with UO-31; 20.3 µM (inactive) in the assay with M14. For the same molecule, the GI50 in the assay with OVCAR-4 was 28.1 µM (inactive); in the assay with SK-MEL-28, 53.6 µM (inactive); in the assay with SF-268, 34.2 µM (inactive); in the assay on KM12 it was 18.5 µM (inactive); with NCI-H460, 30.5 µM (inactive); with SF-295, 35.7 µM (inactive). Further, the GI50 in the assay with MDA-MB-231 is 31.3 µM (inactive); in the assay with NCI-H23 it was 20.3 µM (inactive); in the assay on ACHN, 40.7 µM (inactive); with SF-539, 21.6 µM (inactive); in the assay with IGROV-1, 19.6 µM (inactive); in the assay with NCI/ADR-RES, 20.6 µM (inactive). Besides, the GI50 is 16.4 µM (inactive) in the assay on A498 and 25.8 µM (inactive) with COLO 205.
Regarding `COc1ccc(CCn2cnc3ccccc32)cc1`, the GI50 in the assay on K562, in the assay on CAKI-1, with HT-29, in the assay on SR, in the assay on UO-31 and with M14 was > 100 µM (inactive) each time. In addition, the GI50 in the assay with OVCAR-4, in the assay with SF-268, in the assay on KM12, with NCI-H460, in the assay on SF-295 and in the assay on MDA-MB-231 was > 100 µM (inactive) throughout. Also, the GI50 with NCI-H23, in the assay with ACHN, with SF-539, in the assay on IGROV-1, in the assay on NCI/ADR-RES and with A498 was > 100 µM (inactive) each time. Also, the GI50 with COLO 205 is > 100 µM (inactive).
